Results as given in PubChem BioAssay AID1845213 (Molecular Pharmacology Branch, DTP, NCI, 2023).
pIC50: −log10 of the molar value.

Tested on: NCI-H841 complex tumor spheroid viability
Assay: Anticancer human tumor NCI-H841 cell line growth inhibition;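 note: spheroids exposed to compounds for 7 days before readout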;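 for viability, T/C: 100% = DMSO vehicle control wells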
Conditions: for pIC50: curve of first compound; for viability, T/C: stronger effect = lower value
Method in brief: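 Single agents and combinations were tested on spheroids built from tumor cells plus HUVEC and hMSC, at half-log dilutions starting at or near clinical Cmax, else 10 microM; final DMSO 0.25% (v/v).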

[1] = second compound 0.003 µM, first compound 0.0316 µM
[2] = second compound 0.003 µM, first compound 0.1 µM
[3] = second compound 0.003 µM, first compound 0.316 µM
[4] = second compound 0.003 µM, first compound 1 µM
[5] = second compound 0.003 µM, first compound 3.16 µM
[6] = second compound 0.003 µM, first compound 10 µM
[7] = second compound 0.00949 µM, first compound 0.0316 µM
[8] = second compound 0.00949 µM, first compound 0.1 µM
[9] = second compound 0.00949 µM, first compound 0.316 µM
[10] = second compound 0.00949 µM, first compound 1 µM
[11] = second compound 0.00949 µM, first compound 3.16 µM
[12] = second compound 0.00949 µM, first compound 10 µM
[13] = second compound 0.03 µM, first compound 0.0316 µM
[14] = second compound 0.03 µM, first compound 0.1 µM
[15] = second compound 0.03 µM, first compound 0.316 µM
[16] = second compound 0.03 µM, first compound 1 µM
[17] = second compound 0.03 µM, first compound 3.16 µM
[18] = second compound 0.03 µM, first compound 10 µM
[19] = second compound 0.0949 µM, first compound 0.0316 µM
[20] = second compound 0.0949 µM, first compound 0.1 µM
[21] = second compound 0.0949 µM, first compound 0.316 µM
[22] = second compound 0.0949 µM, first compound 1 µM
[23] = second compound 0.0949 µM, first compound 3.16 µM
[24] = second compound 0.0949 µM, first compound 10 µM
[25] = second compound 0.3 µM, first compound 0.0316 µM
[26] = second compound 0.3 µM, first compound 0.1 µM
[27] = second compound 0.3 µM, first compound 0.316 µM
[28] = second compound 0.3 µM, first compound 1 µM
[29] = second compound 0.3 µM, first compound 3.16 µM
[30] = second compound 0.3 µM, first compound 10 µM

SMILES | pIC50 (second compound 0.003 µM) | pIC50 (second compound 0.00949 µM) | pIC50 (second compound 0.03 µM) | pIC50 (second compound 0.0949 µM) | pIC50 (second compound 0.3 µM) | viability, T/C [1] | viability, T/C [2] | viability, T/C [3] | viability, T/C [4] | viability, T/C [5] | viability, T/C [6] | viability, T/C [7] | viability, T/C [8] | viability, T/C [9] | viability, T/C [10] | viability, T/C [11] | viability, T/C [12] | viability, T/C [13] | viability, T/C [14] | viability, T/C [15] | also measured
CC1COCCN1c1cc(-c2ccnn2C)c2ccnc(-c3ccn[nH]3)c2n1 (stereo not given) + CC[C@@]1(O)C(=O)OCc2c1cc1n(c2=O)Cc2cc3c(CN(C)C)c(O)ccc3nc2-1 | > 7.50 | > 7.50 | > 7.50 | > 7.50 | > 7.50 | 8.47% | 2.38% | 1.1% | 1.26% | 1.27% | 1.76% | 1.08% | 0.71% | 0.73% | 0.86% | 1.2% | 1.56% | 0.77% | 0.57% | 0.65% | viability, T/C [16]: 0.82%; viability, T/C [17]: 1.08%; viability, T/C [18]: 1.32%; viability, T/C [19]: 0.39%; viability, T/C [20]: 0.37%; viability, T/C [21]: 0.5%; viability, T/C [22]: 0.56%; viability, T/C [23]: 0.78%; viability, T/C [24]: 1.13%; viability, T/C [25]: 0.42%; viability, T/C [26]: 0.41%; viability, T/C [27]: 0.4%; viability, T/C [28]: 0.5%; viability, T/C [29]: 0.54%; viability, T/C [30]: 0.72%
COc1cc(C)[nH]c(=O)c1CN1CCc2c(Cl)cc(C(OC)C3COC3)c(Cl)c2C1=O (stereo not given) + CC[C@@]1(O)C(=O)OCc2c1cc1n(c2=O)Cc2cc3c(CN(C)C)c(O)ccc3nc2-1 | 5.42 | 6.64 | > 7.50 | > 7.50 | > 7.50 | 86.1% | 72.1% | 62.9% | 56.6% | 49.7% | 47.5% | 82.3% | 62.6% | 43.2% | 38.2% | 32.5% | 27.9% | 3.53% | 1.86% | 4.87% | viability, T/C [16]: 2.31%; viability, T/C [17]: 2.71%; viability, T/C [18]: 2.37%; viability, T/C [19]: 1.65%; viability, T/C [20]: 1.4%; viability, T/C [21]: 1.34%; viability, T/C [22]: 1.12%; viability, T/C [23]: 0.95%; viability, T/C [24]: 0.94%; viability, T/C [25]: 1.75%; viability, T/C [26]: 1.53%; viability, T/C [27]: 1.29%; viability, T/C [28]: 0.89%; viability, T/C [29]: 1.03%; viability, T/C [30]: 0.98%
COc1ccc([C@@H](O)c2cc(-c3ncnc4cc(N5CCOCC5)ccc34)c(F)cc2Cl)nn1 + CC[C@@]1(O)C(=O)OCc2c1cc1n(c2=O)Cc2cc3c(CN(C)C)c(O)ccc3nc2-1 | 5.42 | 5.91 | > 7.50 | > 7.50 | > 7.50 | 95.6% | 95.9% | 94.9% | 86.5% | 58% | 10.6% | 83.1% | 83.6% | 76.3% | 52.6% | 27.9% | 6.04% | 4.02% | 2.47% | 1.69% | viability, T/C [16]: 1.88%; viability, T/C [17]: 1.8%; viability, T/C [18]: 1.21%; viability, T/C [19]: 1.56%; viability, T/C [20]: 1.55%; viability, T/C [21]: 1.96%; viability, T/C [22]: 1.31%; viability, T/C [23]: 0.92%; viability, T/C [24]: 0.89%; viability, T/C [25]: 1.74%; viability, T/C [26]: 1.64%; viability, T/C [27]: 1.32%; viability, T/C [28]: 1.22%; viability, T/C [29]: 0.55%; viability, T/C [30]: 0.42%
[2H]c1nc(C)nc([2H])c1-c1cc(NC[C@@H](C)c2cccc3c(C(=O)NC)ccnc23)ncn1 + CC[C@@]1(O)C(=O)OCc2c1cc1n(c2=O)Cc2cc3c(CN(C)C)c(O)ccc3nc2-1 | < 5.00 | < 5.00 | > 7.50 | > 7.50 | > 7.50 | 97.6% | 95.8% | 96.1% | 96.4% | 93.4% | 93% | 83.9% | 76.5% | 74.4% | 75.2% | 68.7% | 62.6% | 2.66% | 2.14% | 2.36% | viability, T/C [16]: 1.49%; viability, T/C [17]: 1.43%; viability, T/C [18]: 1.47%; viability, T/C [19]: 1.75%; viability, T/C [20]: 1.82%; viability, T/C [21]: 1.89%; viability, T/C [22]: 1.74%; viability, T/C [23]: 1.58%; viability, T/C [24]: 1.67%; viability, T/C [25]: 1.97%; viability, T/C [26]: 1.94%; viability, T/C [27]: 1.59%; viability, T/C [28]: 1.73%; viability, T/C [29]: 1.5%; viability, T/C [30]: 1.17%
